From patent US10548861B2 (Academia Sinica, priority 2015, dated 2020) come the findings set out here.

Like-named read-outs stand apart in the source and are kept apart here.

Series [1] has as its system MA-10-W51 CB MLL-AF9 + Flt3ITD. The series is described as follows: Cytotoxicity: AML HSC-derived. The format is cell-based, human. The settings on record: growth factor dependent MA-10-W51, FIG. 9. From the text: • a) Growth factor-dependent & cell density growth dependent cell lines. Human cord blood CD34+ cells transduced with MLL-AF9 gene: MA-10, MA-18. Human bone marrow CD34+ cells transduced with MLL-AF9 gene: MA-23. Human cord blood CD34+ cells transduced with MLL-AF9 and N-ras genes: MA-9.3, MA-9.6. • b) Growth factor independent leukemic cell lines. Human MA-10 cells transduced with Flt3 ITD (W51) were adapted to in vitro proliferation without growth factors (Moore Laboratory).

For series [2], the system named is normal human, murine or primate cell and tissue types. In words: MTT / alamar blue cytotoxicity on panel of normal tissues. It counts as cell-based. The note with it: read-out: IC50 range. (In general: The colour change of resazurin is a common sign of viable cells or microbes.)
The subject of series [3] is MV4;11 AML cell line vs normal human tissues. The format is cell-based.
Series [4] has as its system primary AML (AML-2) vs normal human tissues. The format is cell-based.
For series [5], the system named is primary B-ALL vs normal human tissues. The format is cell-based.
The test system of series [6] is H526 variant SCLC cell line vs normal human tissues. It counts as cell-based.
Another series relates to BCI-NSI hTERT. In words: 72 hr cytotoxicity: Bronchial epithelium. The format is cell-based. The note with it: Homo sapiens.
Another series deals with FTE-hTERT. The series is described as follows: 72 hr cytotoxicity: Fallopian epithelium. The format is cell-based. The note with it: Homo sapiens.
The test system of a further series is BMMSC. The series is described as follows: 72 hr cytotoxicity: BM Mesenchyme. It counts as cell-based. The note with it: Homo sapiens.
Another series has as its system H82. In words: 72 hr cytotoxicity: SCLC variant. The format is cell-based. The settings on record: Homo sapiens, NCI-H82.
In the next series the test system is H524. In words: 72 hr cytotoxicity: SCLC variant. The format is cell-based. The settings on record: Homo sapiens, NCI-H524.
A further series relates to H146. The series is described as follows: 72 hr cytotoxicity: SCLC classic. The format is cell-based. The settings on record: Homo sapiens, NCI-H146.
For a further series, the system named is H187. In words: 72 hr cytotoxicity: SCLC classic. It counts as cell-based. The note with it: Homo sapiens, NCI-H187.
For the next series, the system named is H209. In words: 72 hr cytotoxicity: SCLC classic. The format is cell-based. The note with it: Homo sapiens, NCI-H209.
The test system of the next series is H249. The series is described as follows: 72 hr cytotoxicity: SCLC classic. It counts as cell-based. The settings on record: Homo sapiens.
The next series concerns H417. The series is described as follows: 72 hr cytotoxicity: SCLC variant. The format is cell-based. The note with it: Homo sapiens, NCI-H417.
The test system of another series is H526. In words: 72 hr cytotoxicity: SCLC variant. It counts as cell-based. The note with it: Homo sapiens, NCI-H526.
A further series concerns H562. In words: 72 hr cytotoxicity: SCLC classic. The settings on record: Homo sapiens. The format is cell-based.
The next series deals with H60. In words: 72 hr cytotoxicity: SCLC classic. The format is cell-based. The note with it: Homo sapiens.
A further series has as its system H69. In words: 72 hr cytotoxicity: SCLC classic. The format is cell-based. The settings on record: Homo sapiens, NCI-H69.
The subject of a further series is H678. In words: 72 hr cytotoxicity: SCLC classic. It counts as cell-based. The settings on record: Homo sapiens.
Another series deals with H719. In words: 72 hr cytotoxicity: SCLC classic. The format is cell-based. The note with it: Homo sapiens.
Another series has as its system H841. The series is described as follows: 72 hr cytotoxicity: SCLC variant. The format is cell-based. The settings on record: Homo sapiens, NCI-H841.
Another series deals with H889. The series is described as follows: 72 hr cytotoxicity: SCLC classic. It counts as cell-based. The note with it: Homo sapiens, NCI-H889.
The subject of series [7] is normal cord blood CD34+ cells. In words: Cytotoxicity on normal cord blood CD34+ cells. It counts as cell-based. The note with it: Homo sapiens.
Series [8] has as its system HBL2. The series is described as follows: Cytotoxicity: Mantle Cell Lymphoma. The settings on record: Homo sapiens, HBL2.
Series [9] relates to REC-1. In words: Cytotoxicity: Mantle Cell Lymphoma. The note with it: Homo sapiens, Rec1.
The next series deals with H211. In words: 72 hr cytotoxicity: SCLC variant. The format is cell-based. The settings on record: Homo sapiens, NCI-H211; read-out: IC50.
The subject of another series is H128. The series is described as follows: 72 hr cytotoxicity: SCLC classic. The note with it: Homo sapiens, NCI-H128; read-out: IC50. It counts as cell-based.
The test system of series [10] is Ewing's sarcoma primary patient tumor. In words: Cyclophosphamide-resistant primary Ewing's sarcoma xenograft. The settings on record: cyclophosphamide 70 mg/kg i.p. x3, then BO-1055 30 mg/kg iv x4. It counts as in vivo, NSG mice.
Another series has as its system Z-138. The series is described as follows: Drug combination cytotoxicity with BO-1055. It counts as cell-based, human.
A further series has as its system Granta. The series is described as follows: Drug combination cytotoxicity with BO-1055. The format is cell-based, human.
For series [11], the system named is REC-1. The series is described as follows: Drug combination cytotoxicity with BO-1055. It counts as cell-based, human.
The subject of the next series is Mino. The series is described as follows: Drug combination cytotoxicity with BO-1055. It counts as cell-based, human.
The next series concerns NECB1. In words: Drug combination cytotoxicity with BO-1055. The format is cell-based, human.
The next series has as its system JEKO-1. In words: Drug combination cytotoxicity with BO-1055. The settings on record: Homo sapiens, JeKo-1, 72 h, read-out: IC50 single drug. The format is cell-based.
The test system of series [12] is HBL2. The series is described as follows: Drug combination cytotoxicity with BO-1055. The note with it: Homo sapiens, HBL2, 72 h, read-out: IC50 single drug. It counts as cell-based.
[13] abbreviates: Homo sapiens, 72 h, read-out: IC50 single drug.

For `CCc1c(CO)c(CO)c2n1Cc1c(c3ccccc3n1C)C2` [BO-1978], in [1], the “cytotoxicity (in words)” value was “highly cytotoxic, with BO-1978 more so than BO-1055”.
For orientation: IC50 means the concentration at which inhibition is half-maximal. Turning to `N.N.[Cl][Pt][Cl]` [Cisplatin], the IC50 in series [2] fell in the range of 3600 to 4100 nM. Further, the Therapeutic window in [3] (CD34+ relative to MV4;11) was 0.75; in series [3] (HUVEC relative to MV4;11), 6.25; in series [3] (NSI (Bci-NSI) relative to MV4;11) it was 3.75; in series [3] (huMSC relative to MV4;11), 2.50; in [4] (Bci- (NSI) relative to AML-2), 0.50; in series [4] (CD34+ relative to AML-2), 0.10. Also, the Therapeutic window in [4] (FTEC relative to AML-2) came to 1.67; in [4] (HUVEC relative to AML-2) it was 0.83; in series [4] (huMSC relative to AML-2), 0.33; in [5] (Bci- (NSI) relative to B-ALL) it was 0.50; in [5] (CD34+ relative to B-ALL) it was 0.10; in series [5] (FTEC relative to B-ALL), 20.00. In addition, the Therapeutic window in series [5] (HUVEC relative to B-ALL) was 0.83; in series [5] (huMSC relative to B-ALL) it was 0.33. The “therapeutic window (TW)” value in [6] (Bci- (NSI), normalized to 1.00 for H526) is 83.33; in [6] (CD34+, normalized to 1.00 for H526), 33.33; in series [6] (FTEC, normalized to 1.00 for H526) it was 1041.7; in series [6] (H526 (reference)), 1.00; in series [6] (HUVEC, normalized to 1.00 for H526) it was 58.33; in series [6] (huMSC, normalized to 1.00 for H526) it was 75.00.
On to `COc1cc([C@@H]2c3cc4c(cc3[C@@H](O[C@@H]3O[C@@H]5CO[C@@H](C)O[C@H]5[C@H](O)[C@H]3O)[C@H]3COC(=O)[C@H]23)OCO4)cc(OC)c1O` [Etoposide], for which the IC50 with BCI-NSI hTERT (72 h) turned out to be 500 nM; in the series on FTE-hTERT (72 h), 200000 nM; with BMMSC (72 h), 70200 nM; with H82, 9700 nM; in the series on H524 it was 1400 nM; in the series on H146, 2900 nM. For the same molecule, the IC50 stood at 600 nM in the series with H187; 500 nM in the series on H209; 4100 nM in the series with H249; 3700 nM with H417; 800 nM in the series on H526; 5500 nM with H562. Also, the IC50 in the series with H60 was at least 20000 nM; in the series on H69, 400 nM; with H678, 310 nM; with H719, at least 10000 nM; in the series with H841 it was 600 nM; in the series on H889, 1400 nM. In [7] (72 h), this molecule came in with a half-inhibitory concentration (IC50) of 90 nM.
On to `CC(=O)O[C@H]1C(=O)[C@@]2(C)[C@H]([C@H](OC(=O)c3ccccc3)[C@]3(O)C[C@H](OC(=O)[C@H](O)[C@@H](NC(=O)c4ccccc4)c4ccccc4)C(C)=C1C3(C)C)[C@]1(OC(C)=O)CO[C@@H]1C[C@@H]2O` [Paclitaxel], for which the values for the IC50 in the series on HBL2 [8] and in the series on REC-1 [9] were 16 nM and 21 nM, respectively.
For `Cc1[nH]c2ccccc2c1CCNCc1ccc(/C=C/C(=O)NO)cc1` [Panobinostat], in that order: 13 nM and 60 nM.
Consider `CC[C@]1(O)C[C@H]2CN(CCc3c([nH]c4ccccc34)[C@@](C(=O)OC)(c3cc4c(cc3OC)N(C=O)[C@H]3[C@@](O)(C(=O)OC)[C@H](OC(C)=O)[C@]5(CC)C=CCN6CC[C@]43[C@@H]65)C2)C1` [Vincristine], for which the IC50 turned out to be 200000 nM in the series with BCI-NSI hTERT (Bci-NSI hTERT immortalized lung bronchus epithelium, 72 hr, read-out: IC50); 250000 nM in the series with FTE-hTERT (FTEC Fallopian tube epithelium, 72 hr, read-out: IC50); 6300 nM with BMMSC (HuMSC bone marrow mesenchymal stem cells, 72 hr, read-out: IC50); 7 nM in the series on H82 (read-out: IC50); 2 nM in the series with H211; 1 nM in the series with H524 (read-out: IC50). Besides, the IC50 in the series with H128 was determined as 5 nM; in the series with H146 (read-out: IC50), 2900 nM; in the series with H187 (read-out: IC50) it was 1 nM; in the series with H209 (read-out: IC50), 1 nM; with H249 (H249, read-out: IC50), 1 nM; in the series on H417 (read-out: IC50), 2 nM. Also, the IC50 in the series on H526 (read-out: IC50) was 136 nM; in the series on H562 (H562, read-out: IC50), 1 nM; with H60 (H60, read-out: IC50), 2 nM; in the series on H69 (read-out: IC50) it was 3 nM; in the series with H678 (H678, read-out: IC50) it was 2 nM; with H719 (H719, read-out: IC50), 2 nM. The IC50 with H841 (read-out: IC50) worked out at 2 nM; in the series on H889 (read-out: IC50), 1 nM; in series [7] (CD34 (cord blood hematopoietic progenitors), 72 hr, read-out: IC50) it was 2340 nM. In series [3], this molecule yielded a Therapeutic window of 1.00.
Take `O=P1(N(CCCl)CCCl)NCCCO1` (centres unmarked) [cyclophosphamide]: the tumor response entry in [10] is reported as “Tumor growth was not inhibited”.
With `CC(C)C[C@H](NC(=O)[C@H](Cc1ccccc1)NC(=O)c1cnccn1)B(O)O` [velcade, Bortezomib], the “interaction with BO-1055 (combo-1, combo-2)” value in the series on Z-138 was “synergistic cytotoxic with both combinations”; in the series on Granta, “synergistic with combo-1 and antagonistic with combo-2”; in the series on REC-1 [11], “antagonistic in both combinations”; in the series on Mino it was “synergistic cytotoxic with both combinations”; with NECB1 it was “synergistic with combo-1 and antagonistic with combo-2”. For the same molecule, the IC50 is 8 nM in the series on Z-138 (Homo sapiens, Z-138, 72 h, read-out: IC50 single drug); 8 nM in the series with Granta (setting [13]); 8 nM in the series on REC-1 [11] (Homo sapiens, Rec1, 72 h, read-out: IC50 single drug); 40 nM with Mino (Homo sapiens, MINO, 72 h, read-out: IC50 single drug); 137 nM with NECB1 (setting [13]); 15 nM with JEKO-1. Besides, in the series on HBL2 [12], the IC50 worked out at 5 nM.
